Test results taken from patent US10501479B2, “Benzenesulfonyl-asymmetric ureas and medical uses thereof” (HELSINN HEALTHCARE SA, priority 2016, dated 2019).
“And” between values parts separate entries of the source, which are not always exact repeats. Equal values may be shown once. Read-outs that look alike come from different tables or passages of the source.

What was measured:
hERG = hERG (Homo sapiens, UniProt Q12809); experiment: hERG inhibition
[1] = Metabolic stability in mouse liver microsomes; format: in vitro ADME
Method in brief: (§1)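 Compound incubated with human, dog, rat or mouse liver microsomes in 100 mM potassium phosphate, pH 7.4, at 37 °C. Reaction started with an NADPH regenerating system. Samples quenched at 0, 10, 30 and 90 min, and remaining compound measured by LC-MS/MS.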

[2] = molecular target: T1, GHSR-1a (HEK293/GHSR1a cell line) (Homo sapiens, UniProt Q92847); experiment: Ghrelin antagonist potency (IC50) with calcium FLIPR assay, ghrelin 10 nM; format: cell-based
T1 construct: expressed in transfected cells; host or cells: HEK293/GHSR1a cell line
Method in brief: (§2)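 HEK293/GHSR1a cells, seeded 24 hr ahead and loaded with calcium dye 30-60 min, were read by FLIPR fluorescence for 2 min after addition at t=20 sec. Agonism: compound alone, EC50 from dose-response. Antagonism: compound plus 10 nM ghrelin, IC50 from reduction of ghrelin response.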

[3] = Metabolic stability in human liver microsomes; format: in vitro ADME
Method in brief: as §1

[4] = molecular target: T2, recombinant human ghrelin receptor (HEK293/GRLN) (Homo sapiens, UniProt Q92847); experiment: Ghrelin inverse agonist potency (EC50) with IP-1 (IP-One HTRF) assay; format: cell-based; details: IP-1 assay
T2 construct: expressed in transfected cells
Method in brief: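 HEK293/GRLN cells were seeded 18-22 hours before the test, then exposed to compound in stimulation buffer for 1 hour at 37° C, 5% CO2. IP-1 was detected by IP-One HTRF (IP1-d2 plus Tb-cryptate, 1 hour RT), reading 620 and 665 nm; the inverse agonist EC50 was derived from this.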

[5] = Plasma protein binding (PPB), human; format: in vitro ADME; details: read-out: PPB (H)
[6] = Animal PK study in dog (i.v., p.o.); format: in vivo; details: for PK CLiv / PK Vdiv / PK t1/2iv: i.v.; for PK CLpo / PK Vdpo / PK t1/2po: p.o.
[7] = Plasma protein binding (PPB), mouse; format: in vitro ADME
[8] = Animal PK study in mouse via i.v., p.o. and s.c. administration; format: in vivo; details: for Vd / clearance / half-life: plasma; for clearance: read-out: PK CL i.v.
Method in brief: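 Single i.v. (tail vein), s.c. (neck scruff) or p.o. (gavage) dose to mice or rats; oral vehicle 1–5% DMSO/0.5% methylcellulose, i.v./s.c. vehicle 1–5% DMSO in 20% HP-β-cyclodextrin. Plasma sampled 0.083 (i.v./s.c.) or 0.25 to 24 h, analyzed by LC-MS/MS.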

[9] = Animal PK study in rat via i.v., p.o. and s.c. administration; format: in vivo; details: rat
[10] = Plasma protein binding (PPB), rat; format: in vitro ADME; details: read-out: PPB (R) (converted)
[11] = Metabolic stability in dog liver microsomes; format: in vitro ADME
Method in brief: as §1

[12] = Metabolic stability in rat liver microsomes; format: in vitro ADME
Method in brief: as §1

[13] = Plasma protein binding (PPB), mouse; format: in vitro ADME; remark: listed apart in the source
[14] = Plasma protein binding (PPB), rat; format: in vitro ADME; details: read-out: PPB (R)
[15] = molecular target: T1, GHSR-1a (HEK293/GHSR1a cell line); experiment: Ghrelin agonist potency (EC50) with calcium FLIPR assay; format: cell-based
Method in brief: as §2

[16] = Plasma protein binding (PPB), human; format: in vitro ADME; details: read-out: PPB (H) (converted)
[17] = Plasma protein binding (PPB), dog; format: in vitro ADME; details: read-out: PPB (D) (converted)
[18] = Plasma protein binding (PPB), human (H); format: in vitro ADME
[19] = Plasma protein binding (PPB), rat (R); format: in vitro ADME
[20] = ghrelin antagonist potency, read-out: IC50 (Activity)
[21] = inverse agonist potency, read-out: EC50 (Activity)
[22] = iv, 5 mg/kg, i.v., read-out: PK t1/2 i.v.
[23] = po, 10 mg/kg, p.o., read-out: PK t1/2 p.o.
[24] = HEK293/GHSR1a, read-out: Activity EC50/EMax: EC50 (ghrelin agonist potency)
[25] = HEK293/GRLN, read-out: Activity EC50 (ghrelin inverse agonist potency)
[26] = ghrelin antagonist potency, read-out: Activity IC50
[27] = ghrelin agonist potency, read-out: Activity EC50/EMax
[28] = ghrelin inverse agonist potency, read-out: Activity EC50

T2 sequence (Q92847 whole entry): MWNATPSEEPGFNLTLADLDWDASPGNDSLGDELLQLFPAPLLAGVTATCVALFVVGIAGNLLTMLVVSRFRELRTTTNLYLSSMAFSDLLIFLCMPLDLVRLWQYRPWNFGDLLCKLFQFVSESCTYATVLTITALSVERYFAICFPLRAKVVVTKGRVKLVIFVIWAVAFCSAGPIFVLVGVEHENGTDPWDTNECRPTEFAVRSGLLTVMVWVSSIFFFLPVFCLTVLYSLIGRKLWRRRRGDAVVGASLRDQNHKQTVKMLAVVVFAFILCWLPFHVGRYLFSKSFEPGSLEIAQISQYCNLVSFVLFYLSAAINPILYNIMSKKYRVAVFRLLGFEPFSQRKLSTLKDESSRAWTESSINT
T1 sequence (Q92847 whole entry): as above
Chain of hERG (Q12809 whole entry): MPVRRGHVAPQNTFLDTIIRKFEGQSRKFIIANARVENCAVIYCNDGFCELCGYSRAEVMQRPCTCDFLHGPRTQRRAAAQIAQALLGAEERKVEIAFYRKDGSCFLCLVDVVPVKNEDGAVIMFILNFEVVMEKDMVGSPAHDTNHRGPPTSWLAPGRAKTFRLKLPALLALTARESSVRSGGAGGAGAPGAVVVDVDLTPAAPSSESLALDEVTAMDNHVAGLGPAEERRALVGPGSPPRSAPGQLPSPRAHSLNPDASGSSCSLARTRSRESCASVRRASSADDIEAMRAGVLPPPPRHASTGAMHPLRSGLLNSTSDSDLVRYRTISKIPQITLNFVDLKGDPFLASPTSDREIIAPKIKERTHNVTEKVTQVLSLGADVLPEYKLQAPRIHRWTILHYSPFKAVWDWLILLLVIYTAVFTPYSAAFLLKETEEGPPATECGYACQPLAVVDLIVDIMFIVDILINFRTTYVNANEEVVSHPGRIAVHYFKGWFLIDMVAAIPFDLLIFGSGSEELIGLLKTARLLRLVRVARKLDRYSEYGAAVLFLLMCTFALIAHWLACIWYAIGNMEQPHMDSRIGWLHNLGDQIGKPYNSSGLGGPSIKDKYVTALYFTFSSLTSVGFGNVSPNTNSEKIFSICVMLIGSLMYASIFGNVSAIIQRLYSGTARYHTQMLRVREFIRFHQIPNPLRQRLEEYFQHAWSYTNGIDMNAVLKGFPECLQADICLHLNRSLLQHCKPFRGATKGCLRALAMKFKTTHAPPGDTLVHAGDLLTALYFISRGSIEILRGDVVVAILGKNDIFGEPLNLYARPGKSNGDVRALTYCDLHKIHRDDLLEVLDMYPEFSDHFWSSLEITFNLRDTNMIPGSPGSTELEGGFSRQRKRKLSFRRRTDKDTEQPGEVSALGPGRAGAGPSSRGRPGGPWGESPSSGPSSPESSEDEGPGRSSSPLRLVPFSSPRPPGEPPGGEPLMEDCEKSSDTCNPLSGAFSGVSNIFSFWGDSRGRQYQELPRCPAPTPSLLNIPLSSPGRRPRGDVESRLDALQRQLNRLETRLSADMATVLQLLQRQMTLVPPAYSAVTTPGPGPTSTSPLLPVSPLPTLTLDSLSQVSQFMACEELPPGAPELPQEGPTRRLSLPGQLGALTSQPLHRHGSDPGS

Structure (SMILES): CC(c1ccc2c(c1)CCNC2)S(=O)(=O)c1ccc(NC(=O)N[C@@H](C)c2cccc(Cl)c2Cl)cc1.Cl (stereo partly drawn) [H1080, 1-((S)-1-(2,3-dichlorophenyl)ethyl)-3-(4-((1-(1,2,3,4-tetrahydroisoquinolin-6-yl)ethyl)sulfonyl)phenyl)urea]
- hERG inh (hERG): 3.57 µM
- Metabolic Stability Study M = mouse [1]: H < 10 M < 10 R = not reported D = not reported μL/min/mg
- IC50 [2, 20]: 22.6 nM
- Metabolic Stability Study H = human [3]: H < 10 M < 10 R = not reported D = not reported μL/min/mg
- EC50 [4, 21]: 11.1 nM

Structure (SMILES): CC(NC(=O)Nc1ccc(S(=O)(=O)Cc2ccc3c(c2)CNC3)cc1)c1ccccc1.Cl (stereo not shown) [H1148, 1-(4-((isoindolin-5-ylmethyl)sulfonyl)phenyl)-3-(1-phenylethyl)urea]
- fraction unbound [5]: 0.088
- PK F [6]: 15.7 (D) %
- PK CLiv [6]: 12 mL/min/kg
- PK Vdiv [6]: 2.34 (D) L/Kg
- PK t1/2iv [6]: 2.32 (D) h
- PK CLpo [6]: 80.3 mL/min/kg
- PK Vdpo [6]: (M); 14.74 (D) L/Kg
- PK t1/2po [6]: 2.34 (D) h
- fraction unbound [7]: 0.077
- hERG inh (hERG): 12.52 µM
- PK t1/2iv ([8]; i.v.): 1.37 h and 2.13 h
- PK CLpo ([8]; p.o.): 1610 mL/min/kg and 2742 mL/min/kg
- Metabolic Stability Study M = mouse [1]: 21.1 µL/min/mg
- PK Vdiv ([9]; i.v.): 104.5 (R); L/Kg
- PK t1/2iv ([9]; i.v.): 0.51 (R); h
- IC50 [2, 20]: 10 nM
- Metabolic Stability Study H = human [3]: 22.2 µL/min/mg
- fraction unbound [10]: 0.055
- EC50 [4, 21]: 2.9 nM and 3.13 nM

Structure (SMILES): CC(NC(=O)Nc1ccc(S(=O)(=O)Cc2ccc3c(c2)CN(C)C3)cc1)c1ccccc1 (stereo not shown) [H1194, 1-(4-(((2-methylisoindolin-5-yl)methyl)sulfonyl)phenyl)-3-(1-phenylethyl)urea]
- fraction unbound [5]: 0.076
- Metabolic Stability Study D = dog [11]: 14 µL/min/mg
- PK F [6]: 54.07 (D) %
- PK CLiv [6]: 16.7 mL/min/kg
- PK Vdiv [6]: 2.11 (D) L/Kg
- PK t1/2iv [6]: 1.44 (D) h
- PK CLpo [6]: 30.7 mL/min/kg
- PK Vdpo [6]: 4.05 (D) L/Kg
- PK t1/2po [6]: 1.5 (D) h
- fraction unbound [7]: 0.06
- hERG inh (hERG): 22.6 µM
- PK F [8]: 15.56 (M); %
- PK CLiv ([8]; i.v.): 60.2 mL/min/kg
- PK Vdiv ([8]; i.v.): 6.33 L/kg
- PK t1/2iv ([8]; i.v.): 1.21 (M); h
- PK CLpo ([8]; p.o.): 380 mL/min/kg
- PK Vdpo ([8]; p.o.): 53.3 (M); L/Kg
- PK t1/2po ([8]; p.o.): 1.62 (M); h
- Metabolic Stability Study R = rat [12]: 56 µL/min/mg
- Metabolic Stability Study M = mouse [1]: 64.2 µL/min/mg
- PK F [9]: 11.9 (R); %
- PK CLiv ([9]; i.v.): 94.7 mL/min/kg
- PK Vdiv ([9]; i.v.): 8.86 (R); L/Kg
- PK t1/2iv ([9]; i.v.): 1.08 (R); h
- PK CLpo ([9]; p.o.): 848 mL/min/kg
- PK Vdpo ([9]; p.o.): 232.2 (R); L/Kg
- PK t1/2po ([9]; p.o.): 4.54 (R); h
- IC50 [2, 20]: 38.3 nM
- Metabolic Stability Study H = human [3]: 111.6 µL/min/mg
- EC50 [4, 21]: 16.8 nM

Structure (SMILES): CC(NC(=O)Nc1ccc(S(=O)(=O)Nc2ccc3c(c2)CCN(C)C3)cc1)c1cccc(Cl)c1Cl (stereo not shown) [H1333, 4-(3-(1-(2,3-dichlorophenyl)ethyl)ureido)-N-(2-methyl-1,2,3,4-tetrahydroisoquinolin-6-yl)benzenesulfonamide]
- fraction unbound [13]: 0.0006
- PK F [8]: 2.08%
- PK CL p.o. ([8]; p.o.): 1400 mL/min/kg
- PK Vd p.o. ([8]; p.o.): 170 L/kg
- Vd ([8]; iv, 5 mg/kg): 3.26 L/kg
- clearance ([8]; iv, 5 mg/kg, i.v.): 29.7 mL/min/kg
- half-life [8, 22]: 1.27 h
- half-life [8, 23]: 1.4 h
- fraction unbound [14]: 0.001
- Metabolic Stability Study M = mouse [1]: 54 µL/min/mg
- IC50 ([2]; HEK293/GHSR1a, ghrelin 10 nM, read-out: Activity IC50 (ghrelin antagonist potency)): 2.24 nM
- EC50 [15, 24]: > 30000 nM
- fraction unbound [16]: 0.0011
- Metabolic Stability Study H = human [3]: 47.2 µL/min/mg
- fraction unbound [17]: 0.0015
- EC50 [4, 25]: 1.3 nM

Structure (SMILES): COc1cc(S(=O)(=O)Cc2ccc3c(c2)CCNC3)ccc1NC(=O)NC(C)c1cccc(Cl)c1Cl.Cl (stereo not shown) [H1415, 1-(1-(2,3-dichlorophenyl)ethyl)-3-(2-methoxy-4-(((1,2,3,4-tetrahydroisoquinolin-6-yl)methyl)sulfonyl)phenyl)urea]
- Metabolic Stability Study D = dog [11]: 10.5 µL/min/mg
- fraction unbound [13]: 0.0007
- PK F [8]: 1.12%
- PK CL p.o. ([8]; p.o.): 1240 mL/min/kg
- PK Vd p.o. ([8]; p.o.): 326.9 L/kg
- Vd ([8]; iv, 5 mg/kg): 1.72 L/kg
- clearance ([8]; iv, 5 mg/kg, i.v.): 17.2 mL/min/kg
- half-life [8, 22]: 1.16 h
- half-life [8, 23]: 3.04 h
- Metabolic Stability Study R = rat [12]: 28.3 µL/min/mg
- fraction unbound [14]: 0.0023
- Metabolic Stability Study M = mouse [1]: 12.8 µL/min/mg
- clearance ([9]; plasma, iv, 5 mg/kg, i.v., read-out: PK CL i.v. (R)): 35.3 mL/min/kg
- Vd ([9]; plasma, iv, 5 mg/kg, i.v., read-out: PK Vd i.v. (R)): 39.7 L/kg
- half-life ([9]; plasma, iv, 5 mg/kg, i.v., read-out: PK t1/2 i.v. (R)): 13 h
- PK F (R) [9]: 8.9%
- PK CL i.p. (R) ([9]; i.p.): 46 mL/min/kg
- PK Vd i.p. (R) ([9]; i.p.): 61.91 L/kg
- PK t1/2 i.p. (R) ([9]; i.p.): 17/23
- EC50 [15, 24]: > 30000 nM
- fraction unbound [16]: 0.0015
- Metabolic Stability Study H = human [3]: < 10 µL/min/mg
- EC50 [4, 25]: 0.573 nM and 0.4 nM

Structure (SMILES): CC(NC(=O)Nc1ccc(S(=O)(=O)Cc2ccc3c(c2)CNC3)cc1C(=O)O)c1ccccc1.Cl (stereo not shown) [H1486, 5-((isoindolin-5-ylmethyl)sulfonyl)-2-(3-(1-phenylethyl)ureido)benzoic acid]
- fraction unbound [18]: 0.0519
- fraction unbound [19]: 0.0265
- Metabolic Stability Study M = mouse [1]: H = <10 M = <10 μL/min/mg
- IC50 [2, 26]: 9.21 nM
- EC50 [15, 27]: > 30000 nM
- Metabolic Stability Study H = human [3]: H = <10 M = <10 μL/min/mg
- EC50 [4, 28]: 4.9 nM

Structure (SMILES): COc1cc(S(=O)(=O)Cc2ccc3c(c2)CCNC3)ccc1NC(=O)N(O)C(C)c1cccc(Cl)c1Cl (stereo not shown) [H1497, 1-(1-(2,3-dichlorophenyl)ethyl)-1-hydroxy-3-(2-methoxy-4-(((1,2,3,4-tetrahydroisoquinolin-6-yl)methyl)sulfonyl)phenyl)urea]
- fraction unbound [18]: 0.0016
- fraction unbound [19]: 0.002
- IC50 [2, 26]: 2.81 nM
- EC50 [15, 27]: > 30000 nM
- Metabolic Stability Study H = human [3]: H = <10 μL/min/mg
- EC50 [4, 28]: 3.3 nM

Structure (SMILES): COc1cc(S(=O)(=O)Cc2ccc3c(c2)CCNC3)ccc1NC(=O)N(O)C(C)c1ccccc1 (stereo not shown) [H1498, 1-hydroxy-3-(2-methoxy-4-(((1,2,3,4-tetrahydroisoquinolin-6-yl)methyl)sulfonyl)phenyl)-1-(1-phenylethyl)urea]
- fraction unbound [18]: 0.0123
- fraction unbound [19]: 0.0294
- IC50 [2, 26]: 24.8 nM
- EC50 [15, 27]: > 30000 nM
- Metabolic Stability Study H = human [3]: H = 9.9 μL/min/mg
- EC50 [4, 28]: 7.2 nM
